The results in this text go back to patent publication US11730770B2, “Methods for making and using sinoatrial node-like pacemaker cardiomyocytes and ventricular-like cardiomyocytes” (UNIVERSITY HEALTH NETWORK, priority 2015, dated 2023).

What all share (type): cell-based, human
The subject of experiment [1] is pacemaker funny current (If). The experiment can be described thus: Patch clamp, pacemaker funny current density. Conditions: 2 mM Cesium (Cs+) vs Tyrode's solution. The method, then:
FIG. 9. A, Current-voltage relationship for pacemaker funny current density (If) in SANLCM and VLCM. Inset: voltage protocol, from a holding potential of −40 mV currents were elicited by 3 s voltage steps of −10 mV down to −120 mV. Current densities were measured by subtraction of the instantaneous current (t=0) from the current at the end of the 3 sec voltage step. B,C Original pacemaker funny current traces at different membrane potentials in Tyrode's solution (B) and blocked by the application of 2 mM Cesium (Cs^+) (C). Inset: voltage protocol, from a holding potential of −40 mV currents were elicited by 3 s voltage steps of −10 mV down to −120 mV. […] Current densities were measured as peak inward currents. […]
Action potentials and membrane currents were measured with standard current- and voltage-clamp techniques using axopatch amplifier. […] Spontaneous action potentials, funny current (If) and inward rectifier potassium currents ([…]) were recorded at 37° C. using the perforated patch method (nystatin)^14 with the following bath solution (mM): NaCl 124. […] Sodium currents (IN) were recorded at 25° C. using the whole cell ruptured patch method in calcium free bath solution containing low Na^+ to reduce current amplitude for better voltage control (mM): NaCl 30, TEA-Cl 115, CaCb20.01, MgCl2 1, and glucose 5, Hepes 10 (pH 7.4, adjusted with NaOH). […]
For orientation: Patch clamp records ionic current or voltage across a cell membrane.

Experiment [2] relates to HES3 NKX2-5:GFP reporter line. The experiment can be described thus: Flow cytometry of day 20 differentiation cultures for NKX2-5 and cTNT. As to the method: Human pluripotent stem cell lines (Hes3 NKX2-5:GFP)^10 H7 (HESC line approved by NIH registration number 0061^32 and MSC-IPS1^11 were cultured as described^12. For differentiation into the cardiac lineage the established protocol was used with the following modifications (FIG. 1A). 80% confluent hPSCs cultures were dissociated into single cells, suspended in StemPro-34 Media containing 1 ng/ml BMP4 and 10 μM ROCK inhibitor and incubated for 18 h on an orbital shaker to generate embryoid bodies (EBs). The next day (day 1 of differentiation) the EBs were transferred to mesoderm induction media: StemPro-34 containing 10 ng/ml BMP4, 6 ng/ml ActivinA, 5 ng/ml bFGF. At day 3 of differentiation the EBs were washed once using IMDM and suspended in cardiac induction media: StemPro-34 containing 0.5 μM IWP2, 10 ng/ml VEGF, and optionally 5.4 μM SB-431542 (SB, Activin/Nodal/TGFβ inhibitor). At day 5 of differentiation EBs were switched to basic media: Stempro containing 5 ng/ml VEGF. Media was supplemented with VEGF until day 12 of differentiation and changed every 4 days. All cytokines were purchased from R&D systems if not indicated otherwise. EBs were cultured under low oxygen conditions 5% CO2, 5% O2, 90% N2 until day 12 and at 5% CO2, normal air conditions for the rest of the culture period.
EBs were dissociated into single cells at the mesoderm stage (day 3 of differentiation) using TrypLE (Life Technologies) with the rational to ensure efficient cytokine supply to each cell. Cells were placed into 96 well low cluster plates at 80,000 cells/well with the indicated cytokines and 5 μM ROCK inhibitor for re-aggregation into EBs (FIG. 2A). At day 5 of differentiation EBs were transferred to 24 well low cluster plates and continued to be cultured in basic media as described above.
For efficient specification of SANLCM pacemaker, mesoderm was induced with the 3B/2A condition (3 ng/ml BMP4, 2 ng/ml ACTA) at day 1 of differentiation. At day 3 EBs were dissociated as described above and treated with 2.5 ng/ml BMP4 and 0.5 μM RA in addition to standard cardiac induction media.
For the generation of SANLCM cultures free of NKX2-5′ cardiomyocytes mesoderm was induced with the 3B/2A condition (3 ng/ml BMP4, 2 ng/ml ACTA) at day 1 of differentiation. For this protocol EBs were kept intact and treated at day 3 with 2.5 ng/ml BMP4, 0.5 μM RA and 960 nM FGF inhibitor (PD 173074, Tocris) at day 3 or day 4 in addition to standard cardiac induction media.
(§1) For the dissociation of day 3-day 12 EBs TrypLE was used. Day 12-30 EBs were incubated in HANKs buffer containing 1 mg/ml Collagenes type 2 (Worthington) with gentle shaking over night at room temperature, prior to TypLE dissociation. Cells were stained at a concentration of 5×10^6 cells/ml with anti-PDGFRα-PE (1:20) anti-KDR-APC (1:10), (R&D Systems), anti-SIRPA-PeCy (clone SE5A5, 1:1000, Biolegend), anti-CD90-APC (BD), anti-cardiac isoform of cTNT (clone 13-11; 1:2000, Thermo Fischer), rabbit anti-human NKX2-5 (1:800, Cell Signaling Technology), goat anti-mouse IgG APC (1:250, BD), goat anti-mouse IgG PE (1:200, Jackson ImmunoResearch), donkey anti-rabbit IgG A647 Life Technologies). For cell-surface markers staining was carried out in PBS containing 5% FCS. For intra-cellular staining cells were fixed for 10 min at 4° C. with 4% PFA and stained in PBS containing 5% FCS and 0.5% saponin (cTNT) or 0.3% TritonX (NKX2-5). Stained cells were analyzed using the LSR II Flow cytometer (BD). For cell sorting the cells were kept in IMDM containing 5% FCS and sorted at a concentration of 10^6 cell/ml using MoFlo (BD) and Influx (BD) sorter. For sorting of PFA-fixed cells for subsequent RNA isolation the staining buffers and PBS for cell collection were supplemented with 5 mM DTT and 100 U/ml RNaseOUT (Life Technologies). All buffer components were RNAse free and samples were strictly kept on ice and sorted within 3 h from PFA-fixation. Data were analyzed using FlowJo software (Tree Star).
(In general: Flow cytometry measures light scatter and fluorescence of single cells or particles in a stream.)

The test system of experiment [3] is HES-2 embryonic stem cell line. The experiment can be described thus: Flow cytometry of day 20 HES2 cultures, intracellular NKX2-5 and cTNT staining. The method, then:
For the generation of SANLCM cultures free of NKX2-5′ cardiomyocytes mesoderm was induced with the 3B/2A condition (3 ng/ml BMP4, 2 ng/ml ACTA) at day 1 of differentiation. […]
as §1, with “For sorting of PFA-fixed cells for subsequent RNA isolation the staining buffers and PBS for cell collection were supplemented with 5 mM DTT and 100 U/ml RNaseOUT (Life Technologies). All buffer components were RNAse free and samples were strictly kept on ice and sorted within 3 h from PFA-fixation.” left out, “Star). […]” for “Star).”

Experiment [4] deals with SAN pacemaker marker, ventricular marker and cardiac ion channels. The experiment can be described thus: Q-PCR analysis of marker gene expression. The conditions noted are these: BMP4 day 3-5, 2.5 ng/ml vs untreated control, day 4 to 12. The method, then: Total RNA was isolated using the RNAqueous-micro Kit (Ambion) followed by a DNase digestion step (Ambion). For RNA isolation from PFA-fixed cells the RecoverAll Kit (Ambion) was used. 500 ng to 1 μg of RNA was reverse transcribed into cDNA using random hexamers and Oligo(dT) primers with Superscript III Reverse Transcriptase (life technologies). QPCRs were performed on the EP RealPlex MasterCycler (Eppendorf) using the QuntiFast SYBR Green PCR Kit (Qiagen) according to the manufacturer's instructions. A 10-fold dilution series of human genomic DNA standards ranging from 25 ng/μl to […] was used to evaluate the efficiency of the PCR and calculate the copy number of each gene relative to the house keeping gene TBP as described previously^13. Human fetal heart tissue gestation stage 17 was purchased from Novogenix Laboratories. After dissecting ventricular, sinoatrial node and atrioventricular node tissue RNA was isolated using the Trizol method (Life Technologies) and treated with DNase (Ambion).

Another experiment has as its system TBX18. The experiment can be described thus: Quantification of TBX18+ cells from immunostaining. The conditions noted are these: BMP4 2.5 ng/ml day 3-5. As to the method: Cells were fixed with 4% PFA for 10 min at 4° C. and permeabilized using 0.3% Triton X, 200 mM Glycerin for 20 min at RT. Samples were blocked for 30 min at room temperature in blocking buffer (BB): 10% donkey serum, 2% BSA, 0.1% Triton X. The following primary antibodies were incubated in BB over night at 4° C.: anti-cardiac isoform of cTNT (clone 13-11; 1:100, Thermo Fischer), rabbit anti-human MLC2v (1:100), rabbit anti-human SHOX2 (1:200), (Abcam), rabbit anti-human TBX3 (1:100), goat anti-human Tbx18 (1:50), (Santa Cruz). Respective secondary antibodies were incubated for 30 min at RT: donkey anti-mouse IgG A647 (1:400), donkey anti-rabbit IgG A467 (1:400), (Life Technologies), goat anti-mouse IgG Cy3 (1:400), donkey anti-rabbit IgG Cy3 (1:800), donkey anti-goat IgG Cy3 (1:800), (Jackson ImmunoResearch). DAPI was used to counterstain cell nuclei and slides were mounted using Fluorescent Mounting Medium (Dako). The Olympus FluoView 1000 Laser Scanning Confocal Microscope and the FV10-ASW software were used for imaging.
For the quantification of DAPI and TBX18 positive cell nuclei the IMAGE J software plugin ICTN was used. For each condition three random taken pictures (FIG. 3F) of three independent experiments were analyzed.

For the compound `[Cs]` [Cesium], the “effect on pacemaker funny current traces” value in experiment [1] is recorded as “blocked”.
`CCN(CC)CCCCNc1ncc2cc(-c3cc(OC)cc(OC)c3)c(NC(=O)NC(C)(C)C)nc2n1` [PD 173074]: the “NKX2-5+ cardiomyocytes in day 20 cultures” value in experiment [2] (BMP+RA plus FGF inhibitor 240-960 nM) is 51%. In addition, the “NKX2-5-cTNT+ SANLCM in day 20 cultures” value in experiment [2] (BMP+RA plus FGF inhibitor from day 4-6 (480 nM)) is on record as 48±3%. In experiment [2] (FGF inhibitor applied from day 5 onwards), the “block in development of NKX2-5+ cardiomyocytes” value is reported as “no effect”. The “NKX2-5+ myocytes in day 20 cultures” value in experiment [3] (240 nM FGFi day 3-5, vs 43% at endogenous bFGF levels) stood at 5%. The “NKX2-5-cTNT+ SANLCMs in day 20 cultures” value in experiment [3] (BMP 2.5 ng/ml, RA 0.5 μM, 240 nM FGFi day 3-5) is listed as “up to 36%”.
As to `CC1=C(/C=C/C(C)=C/C=C/C(C)=C/C(=O)O)C(C)(C)CCC1` [RA, retinoic acid], the “generation of total cardiomyocytes and SANLCM frequency” value in experiment [2] (RA 500 nM added at later times (days 3 to 12)) is recorded as “no effect”.
As for BMP4: Bone Morphogenetic Protein 4, the TBX18 expression result in experiment [4] was “significantly up-regulated”. The “proportion of SANLCMs” value in experiment [2] (BMP4 1.25-5 ng/ml day 3-5, mesoderm induced with 3B/2A) stood at 35±1%; in experiment [2] (BMP4 1.25-5 ng/ml day 3-5, mesoderm induced with 5B/4A) it was 21±1%; in experiment [2] (BMP4 1.25-5 ng/ml day 3-5, mesoderm induced with 10B/6A), 15±2%. Further, the total cardiomyocytes entry in experiment [2] (high levels of BMP4 (10-20 ng/ml) between day 3-5) is “significant reduction”. Also, the “number of TBX18+ cells at day 6” value in the experiment on TBX18 worked out at 38±2%.
Turning to bFGF: fibroblast growth factor FGF2, the “NKX2-5-cTNT+ SANLCM population in day 20 cultures” value in experiment [2] (BMP+RA plus bFGF (20 ng/ml, day 4-6)) is listed as 12±1%.
